In patent US12435087B2, “Modulators of DCN-1 and methods of use thereof” (Cellarity, Inc., priority 2023, dated 2025):
Where two headings read alike, the source gives them in different places.

Experiments:
DCN1 protein = DCN1 protein (Homo sapiens (Human), UniProt Q96GG9); test: Intact protein MS analysis with the RapidFire-TOF system (covalent adduct formation); format: binding; details: 400 nM DCN1, incubated at room temperature for 3 hours
Procedure: (§1) DCN1 protein, His-TEV-DCN1, were expressed in E. Coli. The His-tagged protein was first purified with an Ni-NTA column. The His-tag was cleaved using His-tag TEV protease and the His-tags were removed using a second Ni-NTA column. Protein purity was verified with SDS-PAGE and intact MS. DCN1 was dissolved in a buffer containing 25 mM Tris-HCl, 200 mM NaCl, and 1 mM DTT at 400 nM. 11 concentrations of compounds were added to the DCN1 solution and incubated at room temperature for 3 hours, unless otherwise specified. The reaction plates were quenched by adding 0.2% formic acid. Quenched assay plates were analyzed with an Agilent RapidFire 360 system connected to an Agilent 6545 Q-TOF mass spectrometer equipped with an AJS source. 10 μL of sample volume was loaded onto a custom packed cartridge (4 μL, PLRP-S 30 μm/1000 Å pore; Optimize Technologies) with loading buffer (ddH2O with 0.09% (vol/vol) formic acid and 0.01% (vol/vol) trifluoroacetic acid; 1.25 ml/min) for 6 seconds before being eluted directly into the mass spectrometer in elution buffer (80% acetonitrile with 0.09% (vol/vol) formic acid and 0.01% (vol/vol) trifluoroacetic acid; 0.5 ml/min) for 7 seconds. The cartridge was re-equilibrated with loading buffer for 1 second before collection of the next sample. The Q-TOF was operated in TOF-only positive ionization mode set to the following parameters: Gas Temp=350 C, Drying Gas=7 l/min, Nebulizer=50 psi, Sheath Gas Temp=400 C, Sheath Gas Flow=12 l/min, VCap=4000 V, Nozzle Voltage=1000 V, Fragmentor=125 V, Skimmer=65 V and Oct 1 RF Vpp=750V. Raw MS data files were deconvoluted and analyzed using the Agilent MassHunter Bioconfirm software package to identify both parent protein and expected compound adduct mass signatures.
An MS assay was performed to evaluate the ability of the compounds to covalently modify DCN-1.
as §1, with “Vcap=4000” for “VCap=4000”

[1] = target: DCN1 (DCUND1) protein PONY domain (Homo sapiens (Human), UniProt Q96GG9); test: TR-FRET assay (binding to DCN-1, displacement of FAM-labeled probe)
Method in brief: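 Compounds read at 1, 5 and 24 h, 0.1% final DMSO, by TR-FRET between terbium-streptavidin on biotinylated DCN1 PONY domain (E. coli) and a FAM-tagged non-covalent inhibitor probe. Two setups used, 5 nM protein with 20 nM labelled probe, or 0.31 nM protein with 100 nM labelled plus 800 nM unlabelled probe; buffer had TritonX and 200 mM NaCl. % activity relative to high (with probe) and low (without probe) controls.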

[2] = 24 hr after treatment with compound, read-out: TR FRET IC50 24 hr
[3] = read-out: TR FRET IC50 1 hr, 1 hr after treatment with compound
[4] = TR FRET IC50 1 hr (nM), 1 hr after treatment with compound

DCN1 (DCUND1) protein PONY domain, sequence (Q96GG9 60-248): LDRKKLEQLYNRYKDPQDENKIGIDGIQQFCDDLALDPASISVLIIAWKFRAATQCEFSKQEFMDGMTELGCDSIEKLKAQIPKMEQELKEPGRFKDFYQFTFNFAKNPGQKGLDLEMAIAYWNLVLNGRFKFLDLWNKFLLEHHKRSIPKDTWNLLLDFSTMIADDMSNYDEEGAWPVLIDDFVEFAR
DCN1 protein, sequence (Q96GG9 whole entry): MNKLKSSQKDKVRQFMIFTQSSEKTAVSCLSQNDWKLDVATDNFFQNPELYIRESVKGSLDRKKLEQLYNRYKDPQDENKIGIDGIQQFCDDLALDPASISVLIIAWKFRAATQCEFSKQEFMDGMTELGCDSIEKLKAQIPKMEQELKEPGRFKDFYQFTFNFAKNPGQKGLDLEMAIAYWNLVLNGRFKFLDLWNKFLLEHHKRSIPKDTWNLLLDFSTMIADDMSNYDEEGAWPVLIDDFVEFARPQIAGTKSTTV

| Structure (SMILES) | Emax (DCN1 protein) | IC50 [1, 2] | IC50 [1, 3] | IC50 [1, 4] | % Adduct Formation (MS Emax) (DCN1 protein) |
| --- | --- | --- | --- | --- | --- |
| CCN1C(=O)[C@@H](NC(=O)c2cccc(C(F)(F)F)c2)[C@@H](c2cccc(NC(=O)[C@H](C)Cl)c2)c2c(C)nn(-c3ccccc3)c21 (mixture of isomers) [Compound I-16] | 0 to 30% | > 3000 nM | > 3000 nM |  |  |
| CCN1C(=O)[C@@H](NC(=O)c2cccc(C(F)(F)F)c2)[C@@H](c2cccc(NC(=O)[C@H](F)Cl)c2)c2c(C)nn(-c3ccccc3)c21 (mixture of isomers) [Compound I-18] | 0 to 30% | > 3000 nM |  | > 3000 nM |  |
| CCN1C(=O)[C@H](NC(=O)c2cccc(C(F)(F)F)c2)[C@@H](c2ccccc2NC(=O)[C@H](C)Br)c2cnn(-c3ccccc3)c21 (mixture of isomers) [Compound I-72] | 80 to 100% | 200 to 1000 nM |  | 1000 to 3000 nM |  |
| CCN1C(=O)[C@H](NC(=O)c2cccc(C(F)(F)F)c2)[C@@H](c2cccc(NC(=O)[C@H](F)Cl)c2)c2c(C)nn(-c3ccccc3)c21 (mixture of isomers) [Compound I-150] | 80 to 100% | 200 to 1000 nM |  | 1000 to 3000 nM |  |
| C=C(CN1CCOCC1)C(=O)Nc1cccc([C@H]2c3c(C)nn(-c4ccccc4)c3N(CC)C(=O)[C@@H]2NC(=O)c2cccc(C(F)(F)F)c2)c1 (racemic) [Compound I-9, N-[rac-(4S,5R)-7-ethyl-3-methyl-4-[3-[2-(morpholinomethyl)prop-2-enoylamino]phenyl]-6-oxo-1-phenyl-4,5-dihydropyrazolo[3,4-b]pyridin-5-yl]-3-(trifluoromethyl)benzamide] | 80 to 100% | ≤ 200 nM |  | ≤ 200 nM |  |
| C=C(CN1CC(F)(F)C1)C(=O)Nc1cccc([C@@H]2c3c(C)nn(-c4ccccc4)c3N(CC)C(=O)[C@H]2NC(=O)c2cccc(C(F)(F)F)c2)c1 (racemic) [Compound I-11] | 80 to 100% | ≤ 200 nM | ≤ 200 nM |  |  |
| C=C(CN1CCOCC1)C(=O)Nc1ccccc1[C@H]1c2cnn(-c3ccccc3)c2N(CC)C(=O)[C@@H]1NC(=O)c1cccc(C(F)(F)F)c1 (racemic) [Compound I-15] | 80 to 100% | ≤ 200 nM | ≤ 200 nM |  |  |
| C=C(C)C(=O)Nc1cccc([C@H]2c3c(C)nn(-c4ccccc4)c3N(CC)C(=O)[C@H]2NC(=O)c2cccc(C(F)(F)F)c2)c1 (racemic) [Compound I-17] | 0 to 30% | > 3000 nM |  | > 3000 nM |  |
| CC#CC(=O)Nc1cccc([C@H]2c3c(C)nn(-c4ccccc4)c3N(CC)C(=O)[C@H]2NC(=O)c2cccc(C(F)(F)F)c2)c1 (racemic) [Compound I-19] | 0 to 30% | > 3000 nM |  | > 3000 nM |  |
| CCN1C(=O)[C@@H](NC(=O)c2cccc(C(F)(F)F)c2)[C@@H](c2cccc(NC#N)c2)c2c(C)nn(-c3ccccc3)c21 (racemic) [Compound I-22] | 0 to 30% | > 3000 nM |  | > 3000 nM |  |
| C/C=C/C(=O)Nc1cccc([C@H]2c3c(C)nn(-c4ccccc4)c3N(CC)C(=O)[C@H]2NC(=O)c2cccc(C(F)(F)F)c2)c1 (racemic) [Compound I-23] | 0 to 30% | > 3000 nM |  | > 3000 nM |  |
| CCN1C(=O)[C@@H](NC(=O)c2cccc(C(F)(F)F)c2)[C@@H](c2cccc(NC(=O)C3=CCCC3)c2)c2c(C)nn(-c3ccccc3)c21 (racemic) [Compound I-24] | 0 to 30% | > 3000 nM |  | > 3000 nM |  |
| C=CC(=O)Nc1cccc([C@H]2c3c(C)nn(-c4ccccc4)c3N(CC)C(=O)[C@H]2NC(=O)c2cccc(C(F)(F)F)c2)c1 (racemic) [Compound I-25] | 0 to 30% | > 3000 nM |  | > 3000 nM |  |
| CCN1C(=O)[C@@H](NC(=O)c2cccc(C(F)(F)F)c2)[C@@H](c2cccc(NC(=O)/C=C/C(F)(F)F)c2)c2c(C)nn(-c3ccccc3)c21 (racemic) [Compound I-27] | 0 to 30% | > 3000 nM |  | > 3000 nM |  |
| CCN1C(=O)[C@H](NC(=O)c2cccc(C(F)(F)F)c2)[C@@H](c2cccc(N3CC=CC3=O)c2)c2c(C)nn(-c3ccccc3)c21 (racemic) [Compound I-28, rac-N-((4R,5S)-7-ethyl-3-methyl-6-oxo-4-(3-(2-oxo-2,5-dihydro-1H-pyrrol-1-yl)phenyl)-1-phenyl-4,5,6,7-tetrahydro-1H-pyrazolo[3,4-b]pyridin-5-yl)-3-(trifluoromethyl)benzamide] | 80 to 100% | 1000 to 3000 nM |  | 1000 to 3000 nM |  |
| CCN1C(=O)[C@H](NC(=O)c2cccc(C(F)(F)F)c2)[C@@H](c2cccc(NC(=O)/C=C/CN(C)C)c2)c2c(C)nn(-c3ccccc3)c21 (racemic) [Compound I-38] | 80 to 100% |  |  | 1000 to 3000 nM |  |
| C=C(C)C(=O)Nc1cccc([C@H]2c3c(C)nn(-c4ccccc4)c3N(CC)C(=O)[C@@H]2NC(=O)c2cccc(C(F)(F)F)c2)c1 (racemic) [Compound I-201] | 0 to 30% |  |  |  |  |
| CCN1C(=O)[C@@H](NC(=O)c2cccc(C(F)(F)F)c2)[C@@H](c2cccc(NC(=O)CCl)c2)c2c(C)nn(-c3ccccc3)c21 (racemic) [Compound I-203] | 0 to 30% |  |  |  |  |
| CCN1C(=O)[C@@H](NC(=O)c2cccc(C(F)(F)F)c2)[C@@H](c2cccc(NC(=O)/C=C/CN3CCOCC3)c2)c2c(C)nn(-c3ccccc3)c21 (racemic) [Compound I-205] | 0 to 30% |  |  |  |  |
| CCN1C(=O)[C@@H](NC(=O)c2cccc(C(F)(F)F)c2)[C@@H](c2cccc(NC(=O)COc3c(F)c(F)cc(F)c3F)c2)c2c(C)nn(-c3ccccc3)c21 (racemic) [Compound I-206] | 0 to 30% |  |  |  |  |
| C#CC(=O)Nc1cccc([C@H]2c3c(C)nn(-c4ccccc4)c3N(CC)C(=O)[C@@H]2NC(=O)c2cccc(C(F)(F)F)c2)c1 (racemic) [Compound I-207] | 80 to 100% |  |  |  |  |
| CCN1C(=O)[C@H](NC(=O)c2cccc(C(F)(F)F)c2)[C@@H](c2ccccc2NC(=O)CCl)c2c(C)nn(-c3ccccc3)c21 (racemic) [Compound I-208] | 80 to 100% |  |  |  |  |
| CCN1C(=O)[C@H](NC(=O)c2cccc(C(F)(F)F)c2)[C@@H](c2cccc(NS(=O)(=O)CCl)c2)c2c(C)nn(-c3ccccc3)c21 (racemic) [Compound I-209] | 0 to 30% |  |  |  |  |
| CCN1C(=O)[C@H](NC(=O)c2cccc(C(F)(F)F)c2)[C@@H](c2ccccc2NC(=O)CCl)c2cnn(-c3ccccc3)c21 [Compound I-178, N-((4S,5R)-4-(2-(2-chloroacetamido)phenyl)-7-ethyl-6-oxo-1-phenyl-4,5,6,7-tetrahydro-1H-pyrazolo[3,4-b]pyridin-5-yl)-3-(trifluoromethyl)benzamide] |  |  |  |  | + (MS Emax % adduct formation greater than or equal to 0.0 and less than or equal to 30.0) |
| CCN1C(=O)[C@@H](NC(=O)c2cccc(C(F)(F)F)c2)[C@H](c2ccccc2NC(=O)CCl)c2cnn(-c3ccccc3)c21 [Compound I-197, N-((4R,5S)-4-(2-(2-chloroacetamido)phenyl)-7-ethyl-6-oxo-1-phenyl-4,5,6,7-tetrahydro-1H-pyrazolo[3,4-b]pyridin-5-yl)-3-(trifluoromethyl)benzamide] | 80 to 100% |  |  |  |  |
| CCN1C(=O)[C@@H](NC(=O)c2cccc(C(F)(F)F)c2)[C@@H](c2cccc(NC(=O)C3=CCC3)c2)c2c(C)nn(-c3ccccc3)c21 [Compound I-202] | 0 to 30% |  |  |  |  |
